The target of one assay is T1, GRP receptor (Mus musculus, UniProt P21729).
T1 construct: Swiss 3T3 fibroblasts were used in these tests as the source of GRP receptor; endogenous in cells; host or cells: Swiss 3T3 fibroblasts (from Dr. K. Brown, Institute of Animal Physiology, Cambridge, U.K.)
The assay is described as follows: Binding inhibition of radiolabelled GRP (Procedure A). The following applies: for EC50: [Antagonist] reducing specific binding of 7 nM [3H-Phe15] GRP 15-27 to 50%, Swiss 3T3 cell monolayers. As to the method: Swiss 3T3 cells, obtained from Dr. K. Brown (Institute of Animal Physiology, Cambridge, U.K.). The cells were grown to confluency in Costar 12-well plates containing DMEM (Gibco) supplemented with 10% fetal bovine serum, 2 mM glutamine and 1% penicillin-streptomycin. The cells were washed twice with binding buffer [1:1 DMEM:Waymouths MB752/1 medium, plus 1 mg/ml BSA (Fraction V, Calbiochem)]. The antagonist was dissolved in 10 mM HCl, and diluted to the appropriate concentration in binding buffer. The antagonist was then added to the cells, followed by radiolabelled GRP at a final concentration of 7 nM. After 30 minutes incubation at 37° C., the supernatant liquid was removed and the cell monolayer rinsed four times with washing buffer (150 mM NaCl, 20 mM Na2 HPO4, 5 mM KCl, 1.8 mM KH2 PO4, 1 mg/ml BSA). The cells were then lysed with 1 ml/well of lysis buffer (1% Triton X-100, 0.1% BSA), and the solution was aspirated into scintillation vials for counting. Each data point was collected in triplicate.
Binding Inhibition: [Antagonist] which reduces the specific binding of 7 nM [^3 H-Phe^15 ] GRP 15-27 to 50% of the level observed in the absence of antagonist. Assay performed in Swiss 3T3 cell monolayers.

In assay [1] the test system is Swiss 3T3 cells. It counts as cell-based. The following applies: for EC50: 3 h. As to the method:
Swiss 3T3 cells were grown in monolayer culture in 24-well plates (Costar) in serum-free DMEM for 48 hours, at which time the peptide being tested and 23 nM ^3 H-thymidine were added. […] The cells were harvested with a Skatron filter apparatus, and the filters counted in a scintillation counter. Mitogenic Stimulation: [Agonist] which stimulates uptake of ^3 H-thymidine to 50% of the maximal level caused by [Nle^27 ] GRP 15-27. Assay performed on Swiss 3T3 monolayers.

The test system of assay [2] is Swiss 3T3 cells. The format is cell-based. The following applies: for EC50: 3 h. As to the method:
Swiss 3T3 cells were grown in monolayer culture in 24-well plates (Costar) in serum-free DMEM for 48 hours, at which time the GRP or a GRP homologue, the antagonist and 23 nM ^3 H-thymidine were added. […] The cells were harvested with a Skatron filter apparatus, and the filters counted in a scintillation counter.
Mitogenic Inhibition: [Antagonist] which reduces the uptake of ^3 H-thymidine caused by 7 nM [Nle^27 ] GRP 15-27 to 50% of the level observed in the absence of antagonist. […] GRP 1-27 as the mitogen. Assay performed on Swiss 3T3 monolayers.
The source holds these as a separate data set.

Another assay relates to H345 SCLC cells. The assay is described as follows: Stimulation of Ca2+ release in SCLC (Procedure D). It counts as cell-based. The following applies: 100 nM GRP, read-out: [Ca2+]i in SCLC IC50. How it is done: Following the procedure of Heikkila et al., J. Biol. Chem. 262 16456 (1987), approximately 1×10^8 H345 SCLC cells, maintained in RPMI-1640 (Ro) medium supplemented with selenium, insulin, and transferrin, were harvested by settling and washing with Ro. They were then resuspended in 2 ml Ro, to which 1.2 nmol Fura-2/AM per 10^6 cells was added. After a 15 minute incubation at 37° C., the cells were diluted to 10 ml with Ro and incubated for 1 hour at 37° C. The cells were then centrifuged and resuspended in HEPES-saline (140 mM NaCl, 5 mM KCl, 5 mM glucose, 1 mM CaCl2, 1 mM MgCl2, 20 mM HEPES, pH 7.4) at a density of 2.5-5×10^6 cells/ml. The cells were kept on ice for up to 2 hours before being used. Ca^2+ measurements were performed at 37° C. in an Aminco SPF-500 fluorimeter. The excitation wavelength was 340 nm, the emission wavelength 510 nm. Two ml of cell suspension was periodically resuspended in a 3 ml plastic cuvette. They were equilibrated at 37° C. for at least 5 minutes before data was collected. After a stable baseline was established, a mixture of the compound of interest an 100 nM GRP was added, and data was collected for approximately 5 minutes. At that time, a challenge dose of GRP was added, and data was collected for an additional 5 minutes. […] Baseline fluorescence was measured after the subsequent addition of 40 μl 2M Tris (pH 9.5) and 64 μl 0.2M EGTA.

The mark [3] stands for this setting: assays of example 2 repeated, unit inferred.

This note sets out measurements from patent US5047502A, “Gastrin releasing peptide antagonist” (Merck and Co., Inc., priority 1989, dated 1991).

Read-outs that look alike come from different tables or passages of the source. Residues, ends and D or L forms follow the SMILES beside them. No end group written: not given here. *: point of attachment. OBn = c1ccc(CO*)cc1; X1 = CCCCCO*; OPr = CCCO*; X2 = CCCCO*

T1 sequence (P21729 whole entry): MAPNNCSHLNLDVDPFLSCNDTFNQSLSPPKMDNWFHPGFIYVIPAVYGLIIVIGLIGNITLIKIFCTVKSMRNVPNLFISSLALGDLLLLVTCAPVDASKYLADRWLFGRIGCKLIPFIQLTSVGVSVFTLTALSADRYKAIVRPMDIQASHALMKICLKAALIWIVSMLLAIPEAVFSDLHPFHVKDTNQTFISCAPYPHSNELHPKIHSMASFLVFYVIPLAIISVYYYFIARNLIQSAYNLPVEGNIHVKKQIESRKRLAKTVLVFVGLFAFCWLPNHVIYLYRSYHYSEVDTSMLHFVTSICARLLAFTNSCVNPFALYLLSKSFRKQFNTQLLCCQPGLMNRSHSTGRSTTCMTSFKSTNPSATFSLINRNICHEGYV

As to `CCCOC(=O)[C@H](CC(C)C)NC(=O)[C@H](Cc1c[nH]cn1)NC(=O)CNC(=O)[C@@H](NC(=O)[C@H](C)NC(=O)[C@H](Cc1c[nH]c2ccccc12)NC(=O)[C@H](Cc1c[nH]cn1)NC(C)=O)C(C)C` [AcHisTrpAlaValGlyHisLeu--O(CH2)2 CH3] (Ac-HWAVGHL-OPr), the 50% inhibitory concentration (IC50) (commonly the concentration that inhibits the measured activity by half) at GRP receptor (setting [3]) was 0.0035 µM.

The molecule `CCCCOC(=O)[C@H](CC(C)C)NC(=O)[C@H](Cc1c[nH]cn1)NC(=O)CNC(=O)[C@@H](NC(=O)[C@H](C)NC(=O)[C@H](Cc1c[nH]c2ccccc12)NC(=O)[C@H](Cc1c[nH]cn1)NC(C)=O)C(C)C` [AcHisTrpAlaValGlyHisLeu--O(CH2)3 CH3] (Ac-HWAVGHL-X2) registered an IC50 at GRP receptor (setting [3]) of 0.0068 µM.

Turning to `CCCCCOC(=O)[C@H](CC(C)C)NC(=O)[C@H](Cc1c[nH]cn1)NC(=O)CNC(=O)[C@@H](NC(=O)[C@H](C)NC(=O)[C@H](Cc1c[nH]c2ccccc12)NC(=O)[C@H](Cc1c[nH]cn1)NC(C)=O)C(C)C` [AcHisTrpAlaValGlyHisLeu--O(CH2)4 CH3] (Ac-HWAVGHL-X1), the IC50 on GRP receptor (setting [3]) is 0.0124 µM.

For the molecule `CC(=O)N[C@@H](Cc1c[nH]cn1)C(=O)N[C@@H](Cc1c[nH]c2ccccc12)C(=O)N[C@@H](C)C(=O)N[C@H](C(=O)NCC(=O)N[C@@H](Cc1c[nH]cn1)C(=O)N[C@@H](CC(C)C)C(=O)OCc1ccccc1)C(C)C` [AcHisTrpAlaValGlyHisLeu--OCH2 C6 H5] (Ac-HWAVGHL-OBn), the concentration for half-maximal inhibition (IC50) on GRP receptor (setting [3]) worked out at 0.0054 µM.

At GRP receptor (setting [3]), `COC(=O)[C@H](CC(C)C)NC(=O)[C@H](Cc1c[nH]cn1)NC(=O)CNC(=O)[C@@H](NC(=O)[C@H](C)NC(=O)[C@H](Cc1c[nH]c2ccccc12)NC(=O)[C@H](Cc1c[nH]cn1)NC(C)=O)C(C)C` [AcHisTrpAlaValGlyHisLeu--OCH3] (Ac-HWAVGHL-OMe) yielded a half-inhibitory concentration (IC50) of 0.0077 µM.

For `CCOC(=O)[C@H](CC(C)C)NC(=O)[C@H](Cc1c[nH]cn1)NC(=O)CNC(=O)[C@@H](NC(=O)[C@H](C)NC(=O)[C@H](Cc1c[nH]c2ccccc12)NC(=O)[C@H](Cc1c[nH]cn1)NC(C)=O)C(C)C` [N-acetyl His Trp Ala Val Gly His Leu-OCH2 CH3] (Ac-HWAVGHL-OEt), the IC50 on GRP receptor (average of 6 experiments) amounted to 0.0039 µM; with Swiss 3T3 cells [2] (average of 2 experiments, read-out: Mitogenic Inhibition IC50), 0.015 µM; in the assay with H345 SCLC cells it was 0.4 µM. Besides, the “Mitogenic Stimulation” value in the assay on Swiss 3T3 cells [1] (at concentrations up to 30 μM) was “none”.

Consider “Ac-HWAVGHL-NH2 [Ac--His--Trp--Ala--Val--Gly--His--LeuNH2]”, for which the EC50 (usually the concentration giving half of the maximal effect) at GRP receptor was 2 µM; in the assay on Swiss 3T3 cells [1] it was above 100 µM; in the assay with Swiss 3T3 cells [2], 3 µM.

For the molecule “HWAVGHL-NH2 [His--Trp--Ala--Val--Gly--His--LeuNH2]”, the results for the concentration for a half-maximal effect (EC50) at GRP receptor, in the assay on Swiss 3T3 cells [1] and in the assay with Swiss 3T3 cells [2] were 20 µM, above 100 µM and 50 µM, respectively.
